# Assay results: patent US20190047966A1, “NOVEL COMPOUND AND PHARMACOLOGICALLY ACCEPTABLE SALT THEREOF” (MEIJI SEIKA PHARMA CO., LTD., priority 2016, published 2019)
# Where two headings read alike, the source gives them in different places.
# How the values were obtained:
# [1] = molecular target: T1, human histamine H4 receptor (Homo sapiens, UniProt Q9H3N8); assay: Evaluation of H4 Receptor Function ([35S]GTPγS binding); format: biochemical
# T1 construct: purchased PerkinElmer Inc; host or cells: CHO-K1
# T1 sequence (Q9H3N8 whole entry): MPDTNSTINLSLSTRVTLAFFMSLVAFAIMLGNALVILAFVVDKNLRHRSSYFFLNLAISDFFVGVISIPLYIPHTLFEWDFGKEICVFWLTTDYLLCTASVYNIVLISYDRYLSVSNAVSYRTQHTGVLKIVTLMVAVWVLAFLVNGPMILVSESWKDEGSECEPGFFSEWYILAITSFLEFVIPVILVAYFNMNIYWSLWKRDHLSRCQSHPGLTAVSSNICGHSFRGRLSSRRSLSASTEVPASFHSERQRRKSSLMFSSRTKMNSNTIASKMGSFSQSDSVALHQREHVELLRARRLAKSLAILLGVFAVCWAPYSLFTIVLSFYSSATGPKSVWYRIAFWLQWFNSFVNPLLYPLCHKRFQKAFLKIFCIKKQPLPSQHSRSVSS
# Protocol: The antagonistic effect was evaluated by the method described below. Membrane preparation from recombinant CHO-K1 cell expressing the human histamine H4 receptor (PerkinElmer Inc.), 10 μM GDP, 0.1 μM histamine, and the compounds dissolved in DMSO were reacted at 30° C. for 20 minutes in a buffering solution containing 20 mM HEPES, pH 7.4, 100 mM NaCl, 10 mM MgCl2, 1 mM DTT, and 1 mM EDTA on an assay plate. Thereafter, SPA beads (Amersham plc) were added, followed by incubation for 60 minutes, and further 0.3 nM [^35S]GTPγS (PerkinElmer Inc.) was added, followed by incubation for 30 minutes.
# [2] = molecular target: T2, human histamine H1 receptor (Homo sapiens, UniProt P35367); assay: Evaluation of Human H1 Receptor Affinity ([3H]pyrilamine binding); set-up: purchased PerkinElmer Inc; host or cells: CHO-K1; details: inhibition constant Ki, CHO-K1 membrane preparation
# T2 sequence (P35367 whole entry): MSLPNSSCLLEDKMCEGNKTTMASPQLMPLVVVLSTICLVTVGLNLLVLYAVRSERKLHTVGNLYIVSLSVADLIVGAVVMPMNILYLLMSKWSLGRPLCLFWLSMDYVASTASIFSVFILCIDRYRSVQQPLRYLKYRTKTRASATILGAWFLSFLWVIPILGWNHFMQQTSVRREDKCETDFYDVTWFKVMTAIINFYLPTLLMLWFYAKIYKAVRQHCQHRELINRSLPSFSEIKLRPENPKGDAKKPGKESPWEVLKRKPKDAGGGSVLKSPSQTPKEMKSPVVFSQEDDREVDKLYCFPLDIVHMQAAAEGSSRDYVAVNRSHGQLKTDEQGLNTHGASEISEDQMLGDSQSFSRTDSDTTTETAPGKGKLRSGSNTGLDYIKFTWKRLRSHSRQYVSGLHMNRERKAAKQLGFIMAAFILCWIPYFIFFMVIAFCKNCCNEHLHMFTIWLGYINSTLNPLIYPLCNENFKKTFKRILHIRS
# Outline: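 Ki values are Cheng-Prusoff conversions of IC50 (Kd 1.1 nM) from radioligand displacement of 1.2 nM [3H]pyrilamine, with 1.0 μM pyrilamine defining nonspecific binding.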
# [3] = molecular target: T1, human histamine H4 receptor; assay: Evaluation of Human H4 Receptor Affinity ([3H]histamine binding); details: inhibition constant Ki, CHO-K1 membrane preparation
# Outline: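 Membranes from CHO-K1 cells expressing human H4 receptor incubated with 8.2 nM [3H]histamine and compound for 90 min at 25 °C in 50 mM Tris-HCl pH 7.4, 1.25 mM EDTA, then filtered and counted. Nonspecific binding defined with 1.0 μM histamine; Ki from IC50 by Cheng-Prusoff using Kd 5.7 nM.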
# [4] = molecular target: T2, human histamine H1 receptor; assay: Evaluation of Human H1 Receptor Function (GeneBLAzer H1-NFAT-bla HEK 293T cells); format: cell-based; details: histamine 30 nM, read-out: Evaluation of H1 Receptor Function (IC50 value, antagonistic effect)
# Protocol: Test Example 3: Evaluation of Human H1 Receptor Function
# The antagonistic effect was evaluated by the method described below. GeneBLAzer® H1-NFAT-bla HEK 293T-cells (Invitrogen Corporation, recombinant cells expressing the human histamine H1 receptor) were incubated at 37° C. for 30 minutes in the presence of the test compounds dissolved in DMSO in a high glucose Dulbecco's Modified Eagle Medium (GlutaMAX, containing 10% fetal bovine serum, 100 μM nonessential amino acids, 25 mM HEPES, 100 U/mL penicillin, and 100 μg/mL streptomycin), and histamine was added such that the final concentration became 30 nM, followed by further incubation for 4.5 hours. Then, a mixture of LiveBLAzer™ FRET-B/G Loading Kit (Invitrogen Corporation) and Solution D (Invitrogen Corporation) was added, followed by leaving to stand at room temperature for 2 hours under shaded conditions. Thereafter, the fluorescence intensity was measured under two conditions of 400 nm/460 nm and 400 nm/535 nm (excitation light/fluorescence) by using a multilabel counter (EnVision: PerkinElmer Inc.). The 50% inhibitory concentration (IC50 value) was calculated in accordance with (measured value−blank measured value at 400 nm/460 nm)/(measured value−blank measured value at 400 nm/535 nm) of each test sample.
# [5] = [35S]GTPγS binding, CHO-K1 membrane, 0.1 μM histamine, read-out: Evaluation of H4 Receptor Function (IC50 value, antagonistic effect)
# [6] = read-out: Evaluation of H4 Receptor Affinity
compound,measurement,setting,value
"Nc1nc2c(c(N3CCN(CCOCCOCC(=O)O)CC3)n1)CCc1cc(OCc3ccc(Cl)cc3)ccc1-2 [11(b), 2-(2-(2-(4-(2-amino-8-((4-chlorobenzyl)oxy)-5,6-dihydrobenzo[h]quinazolin-4-yl)piperazin-1-yl)ethoxy)ethoxy)acetic Acid]",IC50,[1]; [5],200 to 2000 nM
same,Ki,[2],< 100 nM
same,Ki,[3]; [6],< 100 nM
same,IC50,[4],< 200 nM
"Nc1nc2c(c(N3CCN(CCOCc4cccc(C(=O)O)c4)CC3)n1)CCc1cc(OCc3ccc(Cl)cc3)ccc1-2 [15(b), 3-((2-(4-(2-amino-8-((4-chlorobenzyl)oxy)-5,6-dihydrobenzo[h]quinazolin-4-yl)piperazin-1-yl)ethoxy)methyl)benzoic acid]",IC50,[1]; [5],200 to 2000 nM
same,Ki,[2],< 100 nM
same,Ki,[3]; [6],< 100 nM
same,IC50,[4],< 200 nM
"Nc1nc2c(c(N3CCN(CCOCc4cccc(C(=O)O)c4)CC3)n1)CCc1cc(OCc3ccc(OC(F)(F)F)cc3)ccc1-2 [16(b), 3-((2-(4-(2-amino-8-((4-(trifluoromethoxy)benzyl)oxy)-5,6-dihydrobenzo[h]quinazolin-4-yl)piperazin-1-yl)ethoxy)methyl)benzoic acid]",IC50,[1]; [5],200 to 2000 nM
same,Ki,[2],< 100 nM
same,Ki,[3]; [6],< 100 nM
same,IC50,[4],< 200 nM
"Nc1nc2c(c(N3CCN(CCOCc4ccc(F)c(C(=O)O)c4)CC3)n1)CCc1cc(OCc3ccc(Cl)cc3)ccc1-2 [17(b), 5-((2-(4-(2-amino-8-((4-chlorobenzyl)oxy)-5,6-dihydrobenzo[h]quinazolin-4-yl)piperazin-1-yl)ethoxy)methyl)-2-fluorobenzoic acid]",IC50,[1]; [5],200 to 2000 nM
same,Ki,[2],< 100 nM
same,Ki,[3]; [6],< 100 nM
same,IC50,[4],< 200 nM
"Nc1nc2c(c(N3CCN(CCOCc4cccc(C(=O)O)n4)CC3)n1)CCc1cc(OCc3ccc(Cl)cc3)ccc1-2 [18(b), 6-((2-(4-(2-amino-8-((4-chlorobenzyl)oxy)-5,6-dihydrobenzo[h]quinazolin-4-yl)piperazin-1-yl)ethoxy)methyl)picolinic acid bis(trifluoroacetate)]",IC50,[1]; [5],200 to 2000 nM
same,Ki,[2],< 100 nM
same,Ki,[3]; [6],< 100 nM
same,IC50,[4],< 200 nM
"Nc1nc2c(c(N3CCN(CCOc4ccc(C(=O)O)cc4)CC3)n1)CCc1cc(OCc3ccc(Cl)cc3)ccc1-2 [19(b), 4-(2-(4-(2-amino-8-((4-chlorobenzyl)oxy)-5,6-dihydrobenzo[h]quinazolin-4-yl)piperazin-1-yl)ethoxy)benzoic acid]",IC50,[1]; [5],< 200 nM
same,Ki,[2],100 to 500 nM
same,Ki,[3]; [6],< 100 nM
same,IC50,[4],200 to 2000 nM
"Nc1nc2c(c(N3CCN(CCOCc4ccc(C(=O)O)o4)CC3)n1)CCc1cc(OCc3ccc(OC(F)(F)F)cc3)ccc1-2 [20(b), 5-((2-(4-(2-amino-8-((4-(trifluoromethoxy)benzyl)oxy)-5,6-dihydrobenzo[h]quinazolin-4-yl)piperazin-1-yl)ethoxy)methyl)furan-2-carboxylic acid]",IC50,[1]; [5],200 to 2000 nM
same,Ki,[2],< 100 nM
same,Ki,[3]; [6],< 100 nM
same,IC50,[4],< 200 nM
"Nc1nc2c(c(N3CCN(CCO[C@H]4C[C@@H](C(=O)O)C4)CC3)n1)CCc1cc(OCc3ccc(OC(F)(F)F)cc3)ccc1-2 [23(b), cis-3-(2-(4-(2-amino-8-((4-(trifluoromethoxy)benzyl)oxy)-5,6-dihydrobenzo[h]quinazolin-4-yl)piperazin-1-yl)ethoxy)cyclobutane-1-carboxylic acid]",IC50,[1]; [5],< 200 nM
same,Ki,[2],< 100 nM
same,Ki,[3]; [6],< 100 nM
same,IC50,[4],< 200 nM
"Nc1nc2c(c(N3CCN(CCOCc4ccc(C(=O)O)o4)CC3)n1)CCc1cc(OCc3ccc(Cl)cc3)ccc1-2 [127(b), 5-((2-(4-(2-amino-8-((4-chlorobenzyl)oxy)-5,6-dihydrobenzo[h]quinazolin-4-yl)piperazin-1-yl)ethoxy)methyl)furan-2-carboxylic acid]",IC50,[1]; [5],200 to 2000 nM
same,Ki,[2],< 100 nM
same,Ki,[3]; [6],100 to 500 nM
same,IC50,[4],< 200 nM
"Nc1nc2c(c(N3CCN(CCOCc4cc(C(=O)O)ccc4F)CC3)n1)CCc1cc(OCc3ccc(Cl)cc3)ccc1-2 [129(b), 3-((2-(4-(2-amino-8-((4-chlorobenzyl)oxy)-5,6-dihydrobenzo[h]quinazolin-4-yl)piperazin-1-yl)ethoxy)methyl)-4-fluorobenzoic acid]",IC50,[1]; [5],200 to 2000 nM
same,Ki,[2],< 100 nM
same,Ki,[3]; [6],100 to 500 nM
same,IC50,[4],< 200 nM
"CN1CCN(c2nc(N)nc3c2CCc2cc(OCc4ccc(Cl)cc4)ccc2-3)CC1 [Example 1, 8-((4-chlorobenzyl)oxy)-4-(4-methylpiperazin-1-yl)-5,6-dihydrobenzo[h]quinazolin-2-amine]",IC50,[1]; [5],< 200 nM
same,Ki,[2],< 100 nM
same,Ki,[3]; [6],< 100 nM
same,IC50,[4],< 200 nM
"CN1CCN(c2nc(N)nc3c2CCc2cc(OCc4ccccc4)ccc2-3)CC1 [Example 2, 8-(benzyloxy)-4-(4-methylpiperazin-1-yl)-5,6-dihydrobenzo[h]quinazolin-2-amine]",IC50,[1],< 200 nM
same,Ki,[2],< 100 nM
same,Ki,[3]; Evaluation of H4 Receptor Affinity,< 100 nM
same,IC50,[4],< 200 nM
"CN1CCN(c2nc(N)nc3c2CCc2cc(OCc4ccsc4)ccc2-3)CC1 [Example 3, 4-(4-methylpiperazin-1-yl)-8-(thiophen-3-ylmethoxy)-5,6-dihydrobenzo[h]quinazolin-2-amine]",IC50,[1]; [5],< 200 nM
same,Ki,[2],< 100 nM
same,Ki,[3]; [6],< 100 nM
same,IC50,[4],< 200 nM
"Nc1nc2c(c(N3CCN(CCOC[C@H]4CC[C@@H](C(=O)O)CC4)CC3)n1)CCc1cc(OCc3ccc(Cl)cc3)ccc1-2 [Example 12, cis-4-((2-(4-(2-amino-8-((4-chlorobenzyl)oxy)-5,6-dihydrobenzo[h]quinazolin-4-yl)piperazin-1-yl)ethoxy)methyl)cyclohexane-1-carboxylic acid]",IC50,[1]; [5],200 to 2000 nM
same,Ki,[2],< 100 nM
same,Ki,[3]; [6],< 100 nM
same,IC50,[4],< 200 nM
"Nc1nc2c(c(N3CCN(CCOC[C@H]4CC[C@H](C(=O)O)CC4)CC3)n1)CCc1cc(OCc3ccc(Cl)cc3)ccc1-2 [Example 13, trans-4-((2-(4-(2-amino-8-((4-chlorobenzyl)oxy)-5,6-dihydrobenzo[h]quinazolin-4-yl)piperazin-1-yl)ethoxy)methyl)cyclohexane-1-carboxylic acid]",IC50,[1]; [5],200 to 2000 nM
same,Ki,[2],< 100 nM
same,Ki,[3]; [6],< 100 nM
same,IC50,[4],< 200 nM
"Nc1nc2c(c(N3CCN(CCO[C@H]4C[C@@H](C(=O)O)C4)CC3)n1)CCc1cc(OCc3ccc(S(=O)(=O)C(F)(F)F)cc3)ccc1-2 [Example 212, cis-3-(2-(4-(2-amino-8-((4-((trifluoromethyl)sulfonyl)benzyl)oxy)-5,6-dihydrobenzo[h]quinazolin-4-yl)piperazin-1-yl)ethoxy)cyclobutane-l-carboxylic acid]",Ki,[2],< 100 nM
same,Ki,[3]; [6],< 100 nM
"cis-3-(2-(4-(2-amino-8-((4-((trifluoromethyl)cyclohexyl)methoxy)-5,6-dihydrobenzo[h]quinazolin-4-yl)piperazin-1-yl)ethoxy)cyclobutane-l-carboxylic acid [Example 215]",Ki,[2],< 100 nM
same,Ki,[3]; [6],100 to 500 nM
"cis-3-(2-(4-(2-amino-8-((4-cyclopropylbenzyl)oxy)-5,6-dihydrobenzo[h]quinazolin-4-yl)piperazin-1-yl)ethoxy)cyclobutane-l-carboxylic acid [Example 214]",Ki,[2],< 100 nM
same,Ki,[3]; [6],< 100 nM
"trans-4-((2-(4-(2-amino-8-((4-cyanobenzyl)oxy)-5,6-dihydrobenzo[h]quinazolin-4-yl)piperazin-1-yl)ethoxy)cyclohexane-l-carboxylic acid [Example 213]",Ki,[2],< 100 nM
same,Ki,[3]; [6],100 to 500 nM
